Values of other authors in patent US20060127910A1, “Bpl1 as an antifungal target” (priority 2002, published 2006).

Conditions: mice, DOX 2 mg/ml in 5% sucrose solution as drinking water, approx. 5 ml per day

concentration of DOX in kidney (kidney): > 10 mg/g of kidney | concentration of DOX in liver (liver): > 8 mg/g of liver | concentration of DOX in serum (serum): more than 2 mg/ml of serum
SMILES: C[C@H]1c2cccc(O)c2C(O)=C2C(=O)[C@]3(O)C(O)=C(C(N)=O)C(=O)[C@@H](N(C)C)[C@@H]3[C@@H](O)[C@@H]21 [DOX, doxycycline]
